In patent publication US12390421B2, “Zwitterionic dendritic amphiphiles, zwitterionic dendrimers, zwitterionic telodendrimers, nanocarriers comprising same, and methods of making and using same” (The Research Foundation for the State University of New York, priority 2017, dated 2025):

System: SKOV-3 cancer cell
Test: Cellular uptake of protein/drug loaded nanocarriers
Format: cell-based
From the text: Cellular uptake of protein/drug delivered by zwitterionic nanocarriers. The internalization of protein/drug loaded zwitterionic nanocarrier was studied against SKOV-3 cancer cell. […] Folate targeting group modification facilitates FITC-BSA-loaded NP_CB internalization into cells compared to non-targeted NP_CB. […] The ability of NPs to deliver drug into cells was studied using DOX as model drug by taking advantage of its intricate fluorescence.

COc1cccc2c1C(=O)c1c(O)c3c(c(O)c1C2=O)C[C@@](O)(C(=O)CO)C[C@@H]3O[C@H]1C[C@H](N)[C@H](O)[C@H](C)O1.Cl [free DOX, Doxorubicin hydrochloride] was tested, and the “cellular uptake of DOX” value (SKOV-3, DOX free or loaded, 2 h) was “Strong fluorescence and absolute presence of DOX in nucleus”.
With “free FITC-BSA: FITC-labeled BSA, model protein” the “cellular uptake of FITC-BSA” value (SKOV-3, FITC-BSA free or loaded, 1 h) was “no fluorescence signal”.
